Test results taken from US20250313574A1, “SIALIC ACID DERIVATIVES AND METHODS OF USING SAME” (EISAI R&D MANAGEMENT CO., LTD., priority 2022, published 2025).

What was measured:
[1] = target: Recombinant Human Siglec-3/CD33 protein (His-CD33) (Homo sapiens (Human), UniProt P20138); test: Differential scanning fluorimetry (DSF) thermal shift assay; type: binding; settings: thermal melt shift of 0.5 μM CD33 protein with 50 μM compound
[2] = target: Recombinant human CD33 protein (Homo sapiens (Human), UniProt P20138); test: CD33 competitive binding assay for HTS drug screen (fluorescent multivalent sialic acid probe)
In short: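 Recombinant human CD33, coated overnight at 4° C from 10 μg/ml in pH 5.5 acetate, was preincubated briefly with compound. It was then exposed to a multivalent neutravidin/FITC/sialic acid analog A-375 probe (final 5 μM neutravidin, 15 μM A-375, 5 μM FITC) for 30 min at room temperature. After washing, bound FITC fluorescence was read.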

Sequence of Recombinant Human Siglec-3/CD33 protein (His-CD33) (P20138 18-259): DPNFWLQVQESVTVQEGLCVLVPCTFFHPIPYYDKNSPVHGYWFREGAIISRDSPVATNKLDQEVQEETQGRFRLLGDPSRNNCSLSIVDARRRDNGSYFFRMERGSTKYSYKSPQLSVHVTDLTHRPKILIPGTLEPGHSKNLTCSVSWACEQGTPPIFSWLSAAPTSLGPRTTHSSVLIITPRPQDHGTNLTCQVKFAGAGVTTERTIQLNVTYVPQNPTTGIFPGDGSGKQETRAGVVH
Sequence of Recombinant human CD33 protein (P20138 18-259): as above

SMILES	DSF (dTmD) [1]	EC50 [2]
CC(=O)N[C@H]1[C@H]([C@H](O)[C@H](O)CNC(=O)c2ccc(-c3ncn[nH]3)cc2)O[C@@](CCN2CCOC[C@@]23CCN(C(=O)OC(C)(C)C)C3)(C(=O)O)C[C@@H]1O [A-142]	6.4	340 nM
CC(=O)N[C@H]1[C@H]([C@H](O)[C@H](O)CNC(=O)c2ccc(N3CCN(C)CC3)cc2)O[C@@](CCN2CCOC[C@@]23CCN(C(=O)OC(C)(C)C)C3)(C(=O)O)C[C@@H]1O [A-143]	7.8	334 nM
CC(=O)N[C@H]1[C@H]([C@H](O)[C@H](O)CNC(=O)c2ccc(C(F)(F)F)c(C)c2)O[C@@](CCN2CCOC[C@@]23CCN(C(=O)OC(C)(C)C)C3)(C(=O)O)C[C@@H]1O [A-144]	11.0	230 nM
CC(=O)N[C@H]1[C@H]([C@H](O)[C@H](O)CNC(=O)c2ccc(C)c(C(F)(F)F)c2)O[C@@](CCN2CCOC[C@@]23CCN(C(=O)OC(C)(C)C)C3)(C(=O)O)C[C@@H]1O [A-145]	9.6	610 nM
CC(=O)N[C@H]1[C@H]([C@H](O)[C@H](O)CNC(=O)c2ccc(C(F)(F)F)c(O)c2)O[C@@](CCN2CCOC[C@@]23CCN(C(=O)OC(C)(C)C)C3)(C(=O)O)C[C@@H]1O [A-146]	10.6	262 nM
CC(=O)N[C@H]1[C@H]([C@H](O)[C@H](O)CNC(=O)c2ccc(O)c(C(F)(F)F)c2)O[C@@](CCN2CCOC[C@@]23CCN(C(=O)OC(C)(C)C)C3)(C(=O)O)C[C@@H]1O [A-147]	10.6	127 nM
COc1cc(C(=O)NC[C@@H](O)[C@@H](O)[C@@H]2O[C@@](CCN3CCOC[C@@]34CCN(C(=O)OC(C)(C)C)C4)(C(=O)O)C[C@H](O)[C@H]2NC(C)=O)cc(OC)c1OC [A-148]	9.9	197 nM
CC(=O)N[C@H]1[C@H]([C@H](O)[C@H](O)CNC(=O)c2ccc(C)c(F)c2)O[C@@](CCN2CCOC[C@@]23CCN(C(=O)OC(C)(C)C)C3)(C(=O)O)C[C@@H]1O [A-149]	10.7	133 nM
CC(=O)N[C@H]1[C@H]([C@H](O)[C@H](O)CNC(=O)c2ccc3c(c2)N(C)C(=O)CO3)O[C@@](CCN2CCOC[C@@]23CCN(C(=O)OC(C)(C)C)C3)(C(=O)O)C[C@@H]1O [A-150]	9.6	219 nM
CC(=O)N[C@H]1[C@H]([C@H](O)[C@H](O)CNC(=O)c2ccc3cn[nH]c3c2)O[C@@](CCN2CCOC[C@@]23CCN(C(=O)OC(C)(C)C)C3)(C(=O)O)C[C@@H]1O [A-151]	8.9	206 nM
CC(=O)N[C@H]1[C@H]([C@H](O)[C@H](O)CNC(=O)c2ccc(O)c(NC=O)c2)O[C@@](CCN2CCOC[C@@]23CCN(C(=O)OC(C)(C)C)C3)(C(=O)O)C[C@@H]1O [A-152]	7.4	510 nM
CC(=O)N[C@H]1[C@H]([C@H](O)[C@H](O)CNC(=O)c2ccc3nsnc3c2)O[C@@](CCN2CCOC[C@@]23CCN(C(=O)OC(C)(C)C)C3)(C(=O)O)C[C@@H]1O [A-153]	10.1	196 nM
CC(=O)N[C@H]1[C@H]([C@H](O)[C@H](O)CNC(=O)c2cc(C)n(C)n2)O[C@@](CCN2CCOC[C@@]23CCN(C(=O)OC(C)(C)C)C3)(C(=O)O)C[C@@H]1O [A-154]	9.3	137 nM
CCc1cccc(C(=O)NC[C@@H](O)[C@@H](O)[C@@H]2O[C@@](CCN3CCOC[C@@]34CCN(C(=O)OC(C)(C)C)C4)(C(=O)O)C[C@H](O)[C@H]2NC(C)=O)c1 [A-155]	10.1	200 nM
CC(=O)N[C@H]1[C@H]([C@H](O)[C@H](O)CNC(=O)c2cc(C)[nH]n2)O[C@@](CCN2CCOC[C@@]23CCN(C(=O)OC(C)(C)C)C3)(C(=O)O)C[C@@H]1O [A-156]	8.9	138 nM
CC(=O)N[C@H]1[C@H]([C@H](O)[C@H](O)CNC(=O)c2cc(Cl)[nH]n2)O[C@@](CCN2CCOC[C@@]23CCN(C(=O)OC(C)(C)C)C3)(C(=O)O)C[C@@H]1O [A-157]	10.3	80 nM
